The target in one assay is T1, TLR7 (Homo sapiens, UniProt Q9NYK1).
T1 construct: lymphocytes, monocytes and dendritic cells that express TLR7, TLR8 and TLR9; endogenous in cells; host or cells: human PBMCs from healthy donors
T1 sequence (Q9NYK1 27-1049): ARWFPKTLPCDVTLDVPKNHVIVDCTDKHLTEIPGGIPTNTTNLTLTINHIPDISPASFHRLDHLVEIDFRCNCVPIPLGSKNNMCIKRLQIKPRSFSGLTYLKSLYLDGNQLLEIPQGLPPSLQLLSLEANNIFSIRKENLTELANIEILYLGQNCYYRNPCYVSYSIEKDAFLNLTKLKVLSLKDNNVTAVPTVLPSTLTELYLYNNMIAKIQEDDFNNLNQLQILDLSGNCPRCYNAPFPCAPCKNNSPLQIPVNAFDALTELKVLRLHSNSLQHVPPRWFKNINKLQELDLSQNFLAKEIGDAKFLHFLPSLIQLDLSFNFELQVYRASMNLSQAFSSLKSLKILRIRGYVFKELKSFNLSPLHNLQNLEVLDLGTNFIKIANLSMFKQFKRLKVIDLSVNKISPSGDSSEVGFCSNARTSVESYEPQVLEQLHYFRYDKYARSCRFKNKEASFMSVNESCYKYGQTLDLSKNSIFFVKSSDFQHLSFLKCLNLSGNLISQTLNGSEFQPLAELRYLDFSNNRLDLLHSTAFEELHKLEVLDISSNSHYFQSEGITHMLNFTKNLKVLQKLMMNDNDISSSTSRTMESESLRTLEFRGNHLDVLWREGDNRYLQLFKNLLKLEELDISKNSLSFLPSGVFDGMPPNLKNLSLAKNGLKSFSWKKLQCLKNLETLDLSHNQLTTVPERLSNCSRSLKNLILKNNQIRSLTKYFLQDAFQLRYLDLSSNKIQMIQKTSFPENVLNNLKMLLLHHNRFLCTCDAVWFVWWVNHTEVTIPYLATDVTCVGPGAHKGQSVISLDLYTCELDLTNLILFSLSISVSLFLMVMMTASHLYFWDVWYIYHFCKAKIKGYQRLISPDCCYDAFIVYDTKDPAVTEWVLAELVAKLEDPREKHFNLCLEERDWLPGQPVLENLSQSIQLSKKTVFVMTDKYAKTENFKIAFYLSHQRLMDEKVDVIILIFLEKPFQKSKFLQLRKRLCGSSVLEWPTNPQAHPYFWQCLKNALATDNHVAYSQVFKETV
The experiment in a line: Human PBMC cell-based assay, TLR7 agonist GS-986 stimulation, cytokine (IL-6 and IFNα) readout. The following applies: human PBMCs, GS-986 400 nM, 6 hours; Table 26; read-out: TLR-7 EC50. In a few lines:
(§1)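 Cryopreserved healthy-donor PBMCs (100,000 cells/well, RPMI-1640 + 10% FBS) preincubated 1 h at 37 °C with antagonist (10-point dose response), then stimulated 6 h with GS-986 (400 nM final, TLR7) or ODN-2216 (3 μM final, TLR9). Supernatant IL-6 and IFNα measured by electrochemiluminescence immunoassay; EC50 from sigmoidal fit.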

The target of a further assay is T2, TLR9 (Homo sapiens, UniProt Q9NR96).
T2 construct: lymphocytes, monocytes and dendritic cells that express TLR7, TLR8 and TLR9; endogenous in cells; host or cells: human PBMCs from healthy donors
T2 sequence (Q9NR96 26-1032): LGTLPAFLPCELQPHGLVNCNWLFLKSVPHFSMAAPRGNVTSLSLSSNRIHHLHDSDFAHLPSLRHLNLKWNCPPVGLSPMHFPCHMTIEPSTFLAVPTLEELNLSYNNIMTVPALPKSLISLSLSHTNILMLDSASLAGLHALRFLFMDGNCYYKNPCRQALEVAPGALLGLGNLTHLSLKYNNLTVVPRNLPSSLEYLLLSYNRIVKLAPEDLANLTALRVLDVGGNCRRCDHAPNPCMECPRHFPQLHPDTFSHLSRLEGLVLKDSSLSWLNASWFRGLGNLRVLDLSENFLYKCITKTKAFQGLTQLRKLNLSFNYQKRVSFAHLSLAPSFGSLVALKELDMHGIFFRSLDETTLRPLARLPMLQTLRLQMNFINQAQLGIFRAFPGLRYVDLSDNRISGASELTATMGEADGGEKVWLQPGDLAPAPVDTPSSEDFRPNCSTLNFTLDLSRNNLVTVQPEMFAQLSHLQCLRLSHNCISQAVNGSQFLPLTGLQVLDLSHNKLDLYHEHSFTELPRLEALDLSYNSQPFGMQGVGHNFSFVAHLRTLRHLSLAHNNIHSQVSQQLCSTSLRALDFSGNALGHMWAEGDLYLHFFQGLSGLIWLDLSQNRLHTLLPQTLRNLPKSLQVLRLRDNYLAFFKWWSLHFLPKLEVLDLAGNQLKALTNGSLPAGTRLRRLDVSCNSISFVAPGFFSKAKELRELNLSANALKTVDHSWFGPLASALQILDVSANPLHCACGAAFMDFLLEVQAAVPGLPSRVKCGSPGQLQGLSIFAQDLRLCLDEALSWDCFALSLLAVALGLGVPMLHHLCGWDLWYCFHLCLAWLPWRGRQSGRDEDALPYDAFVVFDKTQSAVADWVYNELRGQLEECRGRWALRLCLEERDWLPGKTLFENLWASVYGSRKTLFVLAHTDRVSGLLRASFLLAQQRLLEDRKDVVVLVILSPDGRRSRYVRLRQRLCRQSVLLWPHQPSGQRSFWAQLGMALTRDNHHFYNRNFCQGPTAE
The assay can be described thus: Human PBMC cell-based assay, TLR9 agonist ODN-2216 stimulation, cytokine (IL-6 and IFNα) readout. The following applies: human PBMCs, ODN-2216 3 μM, 6 hours; Table 26; read-out: TLR-9 EC50. The procedure, abridged:
as §1

The values below come from patent publication US20250002471A1 (Gilead Sciences, Inc., priority 2020, published 2025).

Turning to “2-(2,6-dimethylpyridin-4-yl)-3-methyl-6-(1′,2′,3′,6′-tetrahydro-[2,4′-bipyridin]-5-yl)-1H-indole [Example 133]”, the EC50 stood at 24.8 nM on TLR7 and 50.4 nM at TLR9.

With `Cc1cc(-c2[nH]c3cc(-c4cnc5c(c4)ncn5C)ccc3c2C)cc(C)n1` [Example 46], the 50% effective concentration (EC50) on TLR7 worked out at 183 nM; on TLR9 it was 1070 nM.

Turning to `Cc1cc(-c2[nH]c3cc(-c4ccc(N5CCNCC5)nc4)ccc3c2C)c2ccccc2n1` [Example 90], the 50% effective concentration (EC50) was determined as 29.8 nM at TLR7 and 753 nM on TLR9.

Regarding `Cc1cc(-c2[nH]c3cc(C4CCNCC4)ccc3c2C(C)C)cc(C)n1` [Example 50, 2-(2,6-dimethylpyridin-4-yl)-3-isopropyl-6-(piperidin-4-yl)-1H-indole], the EC50 at TLR7 was 222 nM; at TLR9, 784 nM.

On to `Cc1cc(-c2[nH]c3cc(-c4ccc5c(n4)CCNC5)ccc3c2C)cc(C)n1` [Example 182], for which the figures for the EC50 at TLR7 and at TLR9 were 59.6 nM and 47.1 nM, respectively.

For the molecule `Cc1cc(-c2[nH]c3cc(-c4ccnc(N(C)C)c4)ccc3c2C)cc(C)n1` [Example 61], the half-maximal effective concentration (EC50) on TLR7 came out at 886 nM; at TLR9, 601 nM.

Take `Cc1cc(-c2[nH]c3cc(-c4cnn(C5CCNC5)c4)ccc3c2C)cc(C)n1` (stereo not shown) [Example 17]: the half-maximal effective concentration (EC50) at TLR7 came to 124 nM; at TLR9, 73.6 nM.

`Cc1c(-c2cn(C)c(=O)n(C)c2=O)[nH]c2cc(-c3ccc(N4CCNCC4)nc3)ccc12` [Example 91]: the concentration for a half-maximal effect (EC50) at TLR7 was determined as 104 nM; at TLR9 it was 540 nM.

Regarding `Cc1cc(-c2[nH]c3cc(C#CC4CCNCC4)ccc3c2C)cc(C)n1` [Example 100, 2-(2,6-dimethylpyridin-4-yl)-3-methyl-6-(piperidin-4-ylethynyl)-1H-indole], the EC50 at TLR7 was 437 nM; at TLR9 it was 101 nM.

As to `Cc1cc(-c2[nH]c3cc(-c4ccc(N5CCNC6(CC6)C5)nc4)ccc3c2C)cc(C)n1` [Example 22, 6-(6-(4,7-diazaspiro[2.5]octan-7-yl)pyridin-3-yl)-2-(2,6-dimethylpyridin-4-yl)-3-methyl-1H-indole], the EC50 on TLR7 came out at 64.4 nM; at TLR9 it was 153 nM.

As for `Cc1cc(-c2[nH]c3cc(-c4ccc(N5C[C@H]6CC[C@@H](C5)[C@@H]6N)nc4)ccc3c2C)cc(C)n1` [Example 28], the EC50 on TLR7 came to 63 nM; on TLR9, 69.9 nM.

As for `Cc1cc(-c2[nH]c3cc(-c4cnn(CCN)c4)ccc3c2C)cc(C)n1` [Example 16], the EC50 on TLR7 came out at 254 nM; on TLR9, 275 nM.

On to `Cc1cc(-c2[nH]c3cc(-c4nnc(C5CCNCC5)o4)ccc3c2C)cc(C)n1` [Example 190, 2-[2-(2,6-dimethyl-4-pyridyl)-3-methyl-1H-indol-6-yl]-5-(4-piperidyl)-1,3,4-oxadiazole], for which the values for the EC50 at TLR7 and at TLR9 were 16 nM and 55 nM, respectively.

For the molecule `Cc1cc(-c2[nH]c3cc(-c4ccc(C(=O)N5CCN6CCC5C6)cc4)ccc3c2C)cc(C)n1` (stereo not shown) [Example 128], the EC50 is 146 nM on TLR7 and 83.3 nM at TLR9.

Regarding `Cc1cc(-c2[nH]c3cc(-c4ccc(N5CCN(C(=O)[C@H]6COCCN6)CC5)nc4)ccc3c2C)cc(C)n1` [Example 111], the EC50 on TLR7 was 56.8 nM; on TLR9, 59.2 nM.

Regarding `Cc1cc(-c2[nH]c3cc(-c4ccc(N5CCNCC5)nc4)ccc3c2C#N)cc(C)n1` [Example 101, 2-(2,6-dimethylpyridin-4-yl)-6-(6-(piperazin-1-yl)pyridin-3-yl)-1H-indole-3-carbonitrile], the values for the concentration for a half-maximal effect (EC50) at TLR7 and on TLR9 were 1720 nM and 316 nM, respectively.

As for `Cc1cc(-c2[nH]c3cc(-c4ccc(N5CCC(N)CC5)nc4)ccc3c2C)cc(C)n1` [Example 21, 1-(5-(2-(2,6-dimethylpyridin-4-yl)-3-methyl-1H-indol-6-yl)pyridin-2-yl)piperidin-4-amine], the EC50 was 8.6 nM on TLR7 and 28.3 nM at TLR9.

For `Cc1cc(-c2[nH]c3cc(-c4ccc5c(c4)CCNC5)ccc3c2C)cc(C)n1` [Example 13], the 50% effective concentration (EC50) at TLR7 amounted to 102 nM; at TLR9, 19.3 nM.

In the case of `Cc1cc(-c2[nH]c3cc(-c4ccc5c(c4)CNC5)ccc3c2C)cc(C)n1` [Example 15], the concentration giving a half-maximal response (EC50) at TLR7 is 53.6 nM; on TLR9, 55.6 nM.

On to `Cc1cc(-c2[nH]c3cc(-c4cccc(C(=O)N5CCC(N)CC5)c4)ccc3c2C)cc(C)n1` [Example 122], for which the EC50 on TLR7 stood at 226 nM; on TLR9, 87.2 nM.

`Cc1cc(-c2[nH]c3cc(-c4cccc(C(=O)N5CC[C@@H](N)C5)c4)ccc3c2C)cc(C)n1` [Example 121]: the half-maximal effective concentration (EC50) amounted to 134 nM on TLR7 and 112 nM on TLR9.

As for `Cc1cc(-c2[nH]c3cc(-c4ccc(N5CCCNCC5)nc4)ccc3c2C)cc(C)n1` [Example 103, 6-(6-(1,4-diazepan-1-yl)pyridin-3-yl)-2-(2,6-dimethylpyridin-4-yl)-3-methyl-1H-indole], the EC50 is 35.1 nM at TLR7 and 45.7 nM at TLR9.

On to `Cc1nn(C)cc1-c1[nH]c2cc(-c3ccc(N4CCNCC4)nc3)ccc2c1C` [Example 88], for which the values for the EC50 at TLR7 and on TLR9 were 317 nM and 2190 nM, respectively.

On to `Cc1cc(-c2[nH]c3cc(-c4ccc(N5CCN(C(=O)CN)CC5)nc4)ccc3c2C)cc(C)n1` [Example 137], for which the EC50 at TLR7 is 45.9 nM; on TLR9, 119 nM.

Regarding `Cc1cc(-c2[nH]c3cc(-c4ccc(N5CCC(NCCO)CC5)nc4)ccc3c2C)cc(C)n1` [Example 131, 2-((1-(5-(2-(2,6-dimethylpyridin-4-yl)-3-methyl-1H-indol-6-yl)pyridin-2-yl)piperidin-4-yl)amino)ethan-1-ol], the figures for the EC50 at TLR7 and at TLR9 were 17.9 nM and 14.6 nM, respectively.

For the molecule `CC(=O)c1c(-c2cc(C)nc(C)c2)[nH]c2cc(-c3ccc(N4CCNCC4)nc3)ccc12` [Example 102, 1-(2-(2,6-dimethylpyridin-4-yl)-6-(6-(piperazin-1-yl)pyridin-3-yl)-1H-indol-3-yl)ethan-1-one], the results for the EC50 on TLR7 and at TLR9 were 1730 nM and 217 nM, respectively.

For `Cc1cc(-c2[nH]c3cc(-c4ccc(N5CCN(C(=O)C67CNC(C6)C7)CC5)nc4)ccc3c2C)cc(C)n1` [Example 140], the EC50 on TLR7 was determined as 30.5 nM; at TLR9 it was 42.3 nM.

`Cc1cc(-c2[nH]c3cc(-c4ccc(N5CCN(C(=O)[C@@H]6CCCN6)CC5)nc4)ccc3c2C)cc(C)n1` [Example 135]: the concentration giving a half-maximal response (EC50) at TLR7 is 73.9 nM; at TLR9, 41.3 nM.

Turning to `Cc1cc(-c2[nH]c3cc(-c4cccc(C(=O)N5CC6CNCC6C5)c4)ccc3c2C)cc(C)n1` (stereo not shown) [Example 123], the half-maximal effective concentration (EC50) at TLR7 was determined as 374 nM; on TLR9, 274 nM.

By EC50 is commonly meant the midpoint of the concentration-response curve.
